The values that follow come from patent publication US11306079B2, “3-(5-amino-pyrazin-2-yl)-benzenesulfonamide derivatives and related compounds as PI3K-gamma kinase inhibitors” (Incyte Corporation, priority 2017, dated 2022).

pIC50: −log10 of the molar value. Structures can show the parent of a compound that is named as a salt. Where only a bound is given, the exact number is not on record here.

The target in assay [1] is PI3Kδ (p110δ/p85α) Recombinant Human Protein (Homo sapiens (Human), UniProt O00329). Description: PI3Kδ Scintillation Proximity Assay. The following applies: 20 μM PIP2, 2 μM ATP, 3.4 nM PI3Kδ, 120 min, room temperature. It is filed as biochemical. An excerpt: Example C. PI3Kδ Scintillation Proximity Assay
PI3Kδ (p110δ/p85α) Recombinant Human Protein, sequence (O00329 whole entry): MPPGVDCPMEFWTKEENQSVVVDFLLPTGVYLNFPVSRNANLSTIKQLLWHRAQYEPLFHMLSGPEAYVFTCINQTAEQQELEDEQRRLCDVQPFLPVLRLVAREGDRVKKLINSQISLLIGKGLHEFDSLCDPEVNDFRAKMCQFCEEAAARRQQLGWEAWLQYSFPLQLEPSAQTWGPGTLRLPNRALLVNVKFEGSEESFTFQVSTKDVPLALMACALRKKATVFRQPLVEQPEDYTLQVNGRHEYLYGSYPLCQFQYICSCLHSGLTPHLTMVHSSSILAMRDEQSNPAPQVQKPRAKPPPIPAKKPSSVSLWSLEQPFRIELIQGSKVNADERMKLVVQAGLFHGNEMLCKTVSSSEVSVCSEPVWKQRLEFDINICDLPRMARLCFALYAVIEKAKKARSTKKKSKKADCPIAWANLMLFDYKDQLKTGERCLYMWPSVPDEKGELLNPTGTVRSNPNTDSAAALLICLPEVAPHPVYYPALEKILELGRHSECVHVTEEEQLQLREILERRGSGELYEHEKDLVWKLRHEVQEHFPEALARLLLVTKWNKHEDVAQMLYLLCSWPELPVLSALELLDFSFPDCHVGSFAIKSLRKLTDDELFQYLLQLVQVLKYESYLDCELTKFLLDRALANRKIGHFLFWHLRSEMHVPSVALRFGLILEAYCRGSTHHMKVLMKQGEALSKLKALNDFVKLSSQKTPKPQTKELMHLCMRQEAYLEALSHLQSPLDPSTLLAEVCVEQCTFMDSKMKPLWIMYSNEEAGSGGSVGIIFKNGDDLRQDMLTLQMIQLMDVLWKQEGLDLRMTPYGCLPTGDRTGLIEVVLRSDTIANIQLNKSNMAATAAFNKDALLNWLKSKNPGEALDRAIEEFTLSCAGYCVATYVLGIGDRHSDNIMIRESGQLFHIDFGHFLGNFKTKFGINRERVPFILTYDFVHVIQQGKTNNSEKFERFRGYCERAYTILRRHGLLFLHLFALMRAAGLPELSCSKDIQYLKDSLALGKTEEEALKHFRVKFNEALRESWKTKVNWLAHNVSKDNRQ
PI3Kδ (p110δ/p85α) Recombinant Human Protein, sequence (P27986 whole entry partner): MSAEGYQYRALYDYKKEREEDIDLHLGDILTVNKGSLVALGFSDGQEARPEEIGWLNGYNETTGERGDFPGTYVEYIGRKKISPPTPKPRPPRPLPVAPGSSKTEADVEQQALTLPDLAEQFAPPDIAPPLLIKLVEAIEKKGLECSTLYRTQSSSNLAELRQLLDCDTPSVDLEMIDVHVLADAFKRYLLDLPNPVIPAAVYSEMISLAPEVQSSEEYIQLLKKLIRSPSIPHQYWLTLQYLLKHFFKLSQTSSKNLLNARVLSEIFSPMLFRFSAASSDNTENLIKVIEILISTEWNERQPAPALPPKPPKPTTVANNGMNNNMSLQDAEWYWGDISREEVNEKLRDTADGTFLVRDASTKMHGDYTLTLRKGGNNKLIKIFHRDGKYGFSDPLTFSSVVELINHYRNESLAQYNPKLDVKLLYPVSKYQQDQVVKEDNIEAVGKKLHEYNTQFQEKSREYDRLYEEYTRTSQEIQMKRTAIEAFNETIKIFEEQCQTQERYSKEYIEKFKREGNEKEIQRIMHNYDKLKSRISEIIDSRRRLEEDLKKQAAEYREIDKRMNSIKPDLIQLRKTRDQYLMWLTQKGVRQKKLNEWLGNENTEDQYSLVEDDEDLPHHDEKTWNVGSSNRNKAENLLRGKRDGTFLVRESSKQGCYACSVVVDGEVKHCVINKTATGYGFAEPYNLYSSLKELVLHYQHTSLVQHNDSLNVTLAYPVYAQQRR
[γ-^33P]ATP (10 mCi/mL) and Wheat Germ Agglutinin (WGA) YSi SPA Scintillation Beads was purchased from Perkin-Elmer (Waltham, Mass.). Lipid kinase substrate, D-myo-Phosphatidylinositol 4,5-bisphosphate (PtdIns(4,5)P2)D (+)-sn-1,2-di-O-octanoylglyceryl, 3-O-phospho linked (PIP2), CAS 204858-53-7, was purchased from Echelon Biosciences (Salt Lake City, Utah). PI3Kδ (p110δ/p85α) Recombinant Human Protein was purchased from Eurofins (St Charles, Mo.). ATP, MgCl2, DTT, EDTA, MOPS and CHAPS were purchased from Sigma-Aldrich (St. Louis, Mo.).
(§1) The kinase reaction was conducted in polystyrene 384-well Greiner Bio-one white plate from Thermo Fisher Scientific in a final volume of 25 μL. Inhibitors were first diluted serially in DMSO and added to the plate wells before the addition of other reaction components. The final concentration of DMSO in the assay was 2%. The PI3Kδ assay was carried out at room temperature in 20 mM MOPS, pH 6.7, 10 mM MgCl2, 5 mM DTT and CHAPS 0.03%. Reactions were initiated by the addition of ATP, the final reaction mixture consisted of 20 μM PIP2, 2 μM ATP, 0.5 μCi [γ-^33P] ATP, 3.4 nM PI3Kδ. Reactions were incubated for 120 min and terminated by the addition of 40 μL SPA beads suspended in quench buffer: 163 mM potassium phosphate pH 7.8, 20% glycerol, 25 mM EDTA. The final concentration of SPA beads is 1.0 mg/mL. After the plate sealing, plates were shaken overnight at room temperature and centrifuged at 1500 rpm for 10 min, the radioactivity of the product was determined by scintillation counting on Topcount (Perkin-Elmer). IC50 determination was performed by fitting the curve of percent of the solvent control activity versus the log of the inhibitor concentration using the GraphPad Prism 6.0 software.

Assay [2] addresses PI3Kγ (p110γ) Recombinant Human Protein (Homo sapiens (Human), UniProt P48736). Description: PI3K-γ Scintillation Proximity Assay. It is filed as biochemical. The following applies: 20 μM PIP2, 2 μM ATP, 13 nM PI3Kγ, 120 min, room temperature.
From the text: Example B. PI3K-γ Scintillation Proximity Assay
[γ-^33P]ATP (10 mCi/mL) and Wheat Germ Agglutinin (WGA) YSi SPA Scintillation Beads was purchased from Perkin-Elmer (Waltham, Mass.). Lipid kinase substrate, D-myo-Phosphatidylinositol 4,5-bisphosphate (PtdIns(4,5)P2)D (+)-sn-1,2-di-O-octanoylglyceryl, 3-O-phospho linked (PIP2), CAS 204858-53-7, was purchased from Echelon Biosciences (Salt Lake City, Utah). PI3Kγ (p110γ) Recombinant Human Protein was purchased from Life technology (Grand island, NY), ATP, MgCl2, DTT, EDTA, MOPS and CHAPS were purchased from Sigma-Aldrich (St. Louis, Mo.).
as §1, with “PI3Kγ” for “PI3Kδ”, “13” for “3.4”, “PI3Kγ.” for “PI3Kδ.”
Background: SPA uses beads or plates that emit light when radiolabelled molecules are held near them.

Assay [3] relates to Phosphorylated Ribosomal Protein S6 (RPS6) in THP-1 cells. Description: THP-1 RPS6 ELISA Assay. The following applies: Homo sapiens; serum starved THP-1 cells, 2 hours with compound, 10 nM MCP-1 for 15 minutes, Phospho-RPS6 ELISA; read-out: PI3Kγ_THP1_RPS6_ELISA IC50. It is filed as cell-based. On the procedure: Example A. THP-1 RPS6 ELISA Assay
To measure the Phosphorylated Ribosomal Protein S6 (RPS6) in cell lysates, THP-1 cells (Human Acute Monocytic Leukemia) are purchased from ATCC (Manassas, Va.) and maintained in RPMI with 10% FBS (Gibco/Life Technologies, Carlsbad, Calif.). For the assay, THP-1 cells are serum starved overnight in RPMI, then plated in RPMI (2×10^5 cells/well in 90 μL) into 96-well flat-bottom tissue culture treated plates (Corning, Corning, N.Y.), in the presence or absence of a concentration range of test compounds. Covered plates are incubated for 2 hours at 37° C., 5% CO2 then treated with or without 10 nM MCP-1 (MYBioSource, San Diego, Calif.) for 15 minutes at 37° C., 5% CO2. Plates are centrifuged at 1600 RPM and supernatants are removed. Cells are lysed in Lysis Buffer (Cell Signaling, Danvers, Mass.) with Protease Inhibitor (Calbiochem/EMD, Germany), PMSF (Sigma, St Louis Mo.), HALTS (Thermo Fisher, Rockford, Ill.) for 30 min on wet ice. Cell lysates are frozen at −80° C. before testing. The lysates are tested in the Human/Mouse/Rat Phospho-RPS6 ELISA (R&D Systems, Inc. Minn, Minn.). The plate is measured using a microplate reader (SpectraMax M5—Molecular Devices, LLC Sunnyvale, Calif.) set to 450 nm with a wavelength correction of 540. IC50 determination is performed by fitting the curve of inhibitor percent inhibition versus the log of the inhibitor concentration using the GraphPad Prism 5.0 software.
Background: An ELISA detects its analyte on a solid surface through an enzyme-linked reagent.

PI3Kγ (p110γ) Recombinant Human Protein, sequence (P48736 whole entry): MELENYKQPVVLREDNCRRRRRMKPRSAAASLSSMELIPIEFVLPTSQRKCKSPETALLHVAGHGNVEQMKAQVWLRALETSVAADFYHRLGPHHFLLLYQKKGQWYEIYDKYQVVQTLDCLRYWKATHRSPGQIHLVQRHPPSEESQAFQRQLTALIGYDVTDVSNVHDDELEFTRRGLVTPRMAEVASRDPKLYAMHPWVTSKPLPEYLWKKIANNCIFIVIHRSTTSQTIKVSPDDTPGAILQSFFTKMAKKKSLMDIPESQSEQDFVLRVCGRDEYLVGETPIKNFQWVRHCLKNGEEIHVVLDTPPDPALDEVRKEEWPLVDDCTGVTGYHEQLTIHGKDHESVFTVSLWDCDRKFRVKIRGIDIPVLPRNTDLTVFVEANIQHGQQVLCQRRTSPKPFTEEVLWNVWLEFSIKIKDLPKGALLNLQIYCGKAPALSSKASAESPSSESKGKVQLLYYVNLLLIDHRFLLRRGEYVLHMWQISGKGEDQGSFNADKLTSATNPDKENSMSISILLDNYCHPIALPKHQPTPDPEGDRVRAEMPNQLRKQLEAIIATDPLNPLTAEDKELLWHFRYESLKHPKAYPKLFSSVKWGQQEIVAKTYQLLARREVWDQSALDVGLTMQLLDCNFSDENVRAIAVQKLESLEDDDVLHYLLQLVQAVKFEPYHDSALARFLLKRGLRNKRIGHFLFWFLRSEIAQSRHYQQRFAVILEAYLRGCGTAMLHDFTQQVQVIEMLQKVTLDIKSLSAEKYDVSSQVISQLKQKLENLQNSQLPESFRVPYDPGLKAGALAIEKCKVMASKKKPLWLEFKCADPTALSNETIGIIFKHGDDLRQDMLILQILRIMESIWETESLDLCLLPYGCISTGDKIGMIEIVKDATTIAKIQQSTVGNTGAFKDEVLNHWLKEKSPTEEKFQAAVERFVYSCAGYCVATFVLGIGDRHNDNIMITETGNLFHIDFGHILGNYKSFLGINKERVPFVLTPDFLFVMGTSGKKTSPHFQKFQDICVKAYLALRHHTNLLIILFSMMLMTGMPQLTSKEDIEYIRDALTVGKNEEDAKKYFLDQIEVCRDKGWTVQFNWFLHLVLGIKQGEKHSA

For `Cc1ccc(S(=O)(=O)NC23COC(C)(C2)C3)cc1-c1cnc(N)c(-c2cn(C)nc2C)n1` [Example 12, 3-(5-Amino-6-(1,3-dimethyl-1H-pyrazol-4-yl)pyrazin-2-yl)-4-methyl-N-(1-methyl-2-oxabicyclo[2.1.1]hexan-4-yl)benzenesulfonamide trifluoroacetate salt], the negative-log IC50 (pIC50) (as a rule, −log10 of the IC50, conventionally taken in molar units) in assay [1] is no less than 6.30; in assay [2], no less than 7.00; in assay [3] it was no less than 6.30.
Consider `Cc1ccc(S(=O)(=O)NC23COC(CO)(C2)C3)cc1-c1cnc(N)c(-c2cn(C)nc2C)n1` [Example 14, 3-(5-Amino-6-(1,3-dimethyl-1H-pyrazol-4-yl)pyrazin-2-yl)-N-(1-(hydroxymethyl)-2-oxabicyclo[2.1.1]hexan-4-yl)-4-methylbenzenesulfonamide trifluoroacetate salt], for which the figures for the pIC50 in assay [1], in assay [2] and in assay [3] were no less than 6.30, no less than 7.00 and no less than 6.30, respectively.
For the molecule `Cc1ncc(-c2cc(-c3cc(S(=O)(=O)NC45CCC(C#N)(C4)C5)ccc3C)cnc2N)s1` [Example 85, 3-(6-amino-5-(2-methylthiazol-5-yl)pyridin-3-yl)-N-(4-cyanobicyclo[2.1.1]hexan-1-yl)-4-methylbenzenesulfonamide], the negative logarithm of the IC50 (pIC50) in assay [1], in assay [2] and in assay [3] was no less than 7.00 throughout.
With `Cc1ccc(S(=O)(=O)NC23CC(C#N)(C2)C3)cc1-c1cnc(N)c(-n2ccnn2)n1` [Example 43, 3-(5-Amino-6-(1H-1,2,3-triazol-1-yl)pyrazin-2-yl)-N-(3-cyanobicyclo[1.1.1]pentan-1-yl)-4-methylbenzenesulfonamide Trifluoroacetate Salt], the results for the pIC50 in assay [1], in assay [2] and in assay [3] were no less than 6.30, no less than 7.00 and no less than 7.00, respectively.
As for `Cc1ncc(-c2nc(-c3cc(S(=O)(=O)NC45CCC(O)(CC4)C5)ccc3C)cnc2N)s1` [Example 7, 3-(5-Amino-6-(2-methylthiazol-5-yl)pyrazin-2-yl)-N-(4-hydroxybicyclo[2.2.1]heptan-1-yl)-4-methylbenzenesulfonamide trifluoroacetate salt], the pIC50 in assay [1], in assay [2] and in assay [3] was no less than 7.00 in each case.
In the case of `CC(=O)NC12CC(NS(=O)(=O)c3ccc(C)c(-c4cnc(N)c(-n5cncn5)n4)c3)(C1)C2` [Example 40, N-(3-(3-(5-Amino-6-(1H-1,2,4-triazol-1-yl)pyrazin-2-yl)-4-methylphenylsulfonamido)bicyclo[1.1.1]pentan-1-yl)acetamide Trifluoroacetate Salt], the figures for the negative-log IC50 (pIC50) in assay [1], in assay [2] and in assay [3] were no less than 6.30, no less than 7.00 and no less than 6.00, respectively.
Regarding `Cc1ccc(S(=O)(=O)NC23CC(C#N)(C2)C3)cc1-c1cnc(N)c(-c2cn(C)nc2C)n1` [Example 10, 3-(5-Amino-6-(1,3-dimethyl-1H-pyrazol-4-yl)pyrazin-2-yl)-N-(3-cyanobicyclo[1.1.1]pentan-1-yl)-4-methylbenzenesulfonamide Trifluoroacetate Salt], the pIC50 in assay [1] is no less than 7.00; in assay [2], no less than 7.00; in assay [3], no less than 6.30.
`Cc1ccc(S(=O)(=O)NC23CNC(C2)C3)cc1-c1cnc(N)c(-c2ncn(C)n2)n1` [Example 57, 3-(5-Amino-6-(1-methyl-1H-1,2,4-triazol-3-yl)pyrazin-2-yl)-N-(2-azabicyclo[2.1.1]hexan-4-yl)-4-methylbenzenesulfonamide trifluoroacetate salt]: the results for the pIC50 in assay [1], in assay [2] and in assay [3] were no less than 7.00, no less than 7.00 and no less than 6.30, respectively.
As to `Cc1ccc(S(=O)(=O)NC23CC(C#N)(C2)C3)cc1-c1cnc(N)c(-c2ncn(C)n2)n1` [Example 45, 3-(5-Amino-6-(1-methyl-1H-1,2,4-triazol-3-yl)pyrazin-2-yl)-N-(3-cyanobicyclo[1.1.1]pentan-1-yl)-4-methylbenzenesulfonamide Trifluoroacetate Salt], the pIC50 in assay [1] is no less than 6.30; in assay [2], no less than 7.00; in assay [3], no less than 6.30.
As to `Cc1ccc(S(=O)(=O)NC23CC(C#N)(C2)C3)cc1-c1cnc(N)c(-n2nccn2)n1` [Example 41, 3-(5-Amino-6-(2H-1,2,3-triazol-2-yl)pyrazin-2-yl)-N-(3-cyanobicyclo[1.1.1]pentan-1-yl)-4-methylbenzenesulfonamide Trifluoroacetate Salt], the pIC50 in assay [1], in assay [2] and in assay [3] was no less than 7.00 throughout.
Turning to `Cc1cc(-c2nc(-c3cc(S(=O)(=O)NC45CCC(CO)(CC4)OC5)ccc3C)cnc2N)ccn1` [Example 18, 3-(5-Amino-6-(2-methylpyridin-4-yl)pyrazin-2-yl)-N-(1-(hydroxymethyl)-2-oxabicyclo[2.2.2]octan-4-yl)-4-methylbenzenesulfonamide Trifluoroacetate Salt], the pIC50 in assay [1] is no less than 6.30; in assay [2], no less than 7.00; in assay [3], no less than 6.30.
As for `Cc1ncc(-c2nc(-c3cc(S(=O)(=O)NC45COC(C(C)O)(C4)C5)ccc3C)cnc2N)s1` (stereo not drawn) [Example 8, 3-(5-Amino-6-(2-methylthiazol-5-yl)pyrazin-2-yl)-N-(1-(1-hydroxyethyl)-2-oxabicyclo[2.1.1]hexan-4-yl)-4-methylbenzenesulfonamide trifluoroacetate salt], the pIC50 in assay [1], in assay [2] and in assay [3] was no less than 7.00 throughout.
In the case of `[2H]C([2H])([2H])c1ccc(S(=O)(=O)NC23CCC(C#N)(C2)C3)cc1-c1cnc(N)c(-c2cncnc2)n1` [Example 64, 3-(5-Amino-6-(pyrimidin-5-yl)pyrazin-2-yl)-N-(4-cyanobicyclo[2.1.1]hexan-1-yl)-4-(methyl-d3)benzenesulfonamide trifluoroacetate salt], the pIC50 in assay [3] is no less than 7.00.
On to `Cc1ccc(S(=O)(=O)NC23CC(C#N)(C2)C3)cc1-c1cnc(N)c(-c2nn[nH]n2)n1` [Example 36, 3-(5-Amino-6-(2H-tetrazol-5-yl)pyrazin-2-yl)-N-(3-cyanobicyclo[1.1.1]pentan-1-yl)-4-methylbenzenesulfonamide Trifluoroacetate Salt], for which the pIC50 was no more than 5.70 in assay [1] and no less than 7.00 in assay [2].
